Measurements: the NIST ThermoML archive (doi:10.1016/j.jct.2013.01.019)
± gives the expanded uncertainty stated by the source.

What was measured:
[1] = Crystal; DTA
[2] = Molar enthalpy of transition or fusion; settings: Crystal; DSC

Normal melting temperature [1] [°C]	Molar enthalpy of transition or fusion [2] [kcal/mol]	Compound
24.00 ± 0.53	9.33 ± 0.263	CCCCCCCCCCCCO [dodecan-1-ol]
27.80 ± 0.53	14.7 ± 0.406	CCCCCCCCCCCCCCCCCC [octadecane]
